Where “and” joins values, the source holds several entries; their conditions need not be identical. Equal entries are not always repeated.

As usually defined, the IC50 is the midpoint of a concentration-inhibition curve. High values mean lower potency, low ones higher potency.

The assay addresses MMP-13 (Homo sapiens, UniProt P45452). As to the kind of experiment: EnzoLyte 520 Generic MMP Assay Kit, 5-FAM/QXL520 FRET peptide substrate. It counts as biochemical. The source says: The EnzoLyte™ 520 Generic MMP Assay Kit (AnaSpec Inc.) can detect the activity of several MMPs including MMP-1, 2, 3, 7, 8, 9, 13, and 14. This kit uses a 5-FAM/QXL™520 fluorescence resonance energy transfer (FRET) peptide as an MMP substrate.

For the compound `CNC(=O)[C@@H](NC(=O)c1ccc(-c2ccc(O[C@H](C)c3ccccc3)cn2)o1)C1CCCCC1` [N-[(1S)-1-cyclohexyl-2-(methylamino)-2-oxoethyl]-5-{5-[(1R)-1-phenylethoxy]pyridin-2-yl}furan-2-carboxamide], the IC50 is 41 nM and 73 nM. With `CNC(=O)[C@@H](NC(=O)c1ccc(-c2ccc(O[C@@H](C)c3ccccc3)cn2)o1)C1CCCCC1` [N-[(1S)-1-cyclohexyl-2-(methylamino)-2-oxoethyl]-5-{5-[(1S)-1-phenylethoxy]pyridin-2-yl}furan-2-carboxamide] the figure was 295 nM; with `CNC(=O)[C@@H](NC(=O)c1ccc(-c2ccc(OCc3cc(C)nc(C)c3)cn2)o1)C1CCCCC1` [N-[(1S)-1-cyclohexyl-2-(methylamino)-2-oxoethyl]-5-{5-[(2,6-dimethylpyridin-4-yl)methoxy]pyridin-2-yl}furan-2-carboxamide], 2 nM.

Compound `CNC(=O)[C@@H](NC(=O)c1ccc(-c2ccc(OCc3ccnc(C)c3)cn2)o1)C1CCCCC1` [N-[(1S)-1-cyclohexyl-2-(methylamino)-2-oxoethyl]-5-{5-[(2-methylpyridin-4-yl)methoxy]pyridin-2-yl}furan-2-carboxamide] returned an IC50 of 1 nM. On to `CNC(=O)[C@@H](NC(=O)c1ccc(-c2ccc(OCc3cc(C)cc(C)c3)cn2)o1)C1CCCCC1` [N-[(1S)-1-cyclohexyl-2-(methylamino)-2-oxoethyl]-5-{5-[(3,5-dimethylbenzyl)oxy]pyridin-2-yl}furan-2-carboxamide], for which the IC50 worked out at 115 nM.

For the compound `CNC(=O)[C@@H](NC(=O)c1ccc(-c2ccc(OCc3cccc(C)c3)cn2)o1)C1CCCCC1` [N-[(1S)-1-cyclohexyl-2-(methylamino)-2-oxoethyl]-5-{5-[(3-methylbenzyl)oxy]pyridin-2-yl}furan-2-carboxamide], the midpoint of inhibition, the IC50, lay at 36 nM. The compound `CNC(=O)[C@@H](NC(=O)c1ccc(-c2ccc(OCc3ccncc3C)cn2)o1)C1CCCCC1` [N-[(1S)-1-cyclohexyl-2-(methylamino)-2-oxoethyl]-5-{5-[(3-methylpyridin-4-yl)methoxy]pyridin-2-yl}furan-2-carboxamide] registered an IC50 of 3 nM. With `CNC(=O)[C@@H](NC(=O)c1ccc(-c2ccc(OCc3cc(C)ccn3)cn2)o1)C1CCCCC1` [N-[(1S)-1-cyclohexyl-2-(methylamino)-2-oxoethyl]-5-{5-[(4-methylpyridin-2-yl)methoxy]pyridin-2-yl}furan-2-carboxamide] the figure was 8 nM; with `CNC(=O)[C@@H](NC(=O)c1ccc(-c2ccc(OCc3cn(C)cn3)cn2)o1)C1CCNCC1` [N-[(1S)-2-(methylamino)-2-oxo-1-(piperidin-4-yl)ethyl]-5-{5-[(1-methyl-1H-imidazol-4-yl)methoxy]pyridin-2-yl}furan-2-carboxamide], 163 nM; with `NC(=O)COCCNC(=O)[C@@H](NC(=O)c1ccc(-c2ccc(Cl)cc2)o1)C1CCCCC1` [N-[(1S)-2-{[2-(2-amino-2-oxoethoxy)ethyl]amino}-1-cyclohexyl-2-oxoethyl]-5-(4-chlorophenyl)furan-2-carboxamide], 325 nM. As to `COCC(C)NC(=O)[C@@H](NC(=O)c1ccc(-c2ccc(NC(=O)c3cc4ccccc4o3)cc2)o1)C1CCCCC1` (stereo partly drawn) [N-{4-[5-({(1S)-1-cyclohexyl-2-[(1-methoxypropan-2-yl)amino]-2-oxoethyl}carbamoyl)furan-2-yl]phenyl}-1-benzofuran-2-carboxamide], half-maximal inhibition (IC50) was put at 355 nM.

The record behind these values is patent US8637550B2, “Heteroaryl diamide compounds useful as MMP-13 inhibitors” (Boehringer Ingelheim International GmbH, priority 2008, dated 2014).
